Laboratory results as given in US12297235B2, “Synthetic peptide compounds and methods of use” (REALTA HOLDINGS, LLC, priority 2015, dated 2025).
Like-named read-outs stand apart in the source and are kept apart here. Square brackets hold non-standard residues; d marks the D form. Ends that are not written are not given here. Peptide text beside a SMILES is read from it. Sar = CNCC(=O)O

Legend:
[1] = assay type: biochemical, human; settings: 0.77 mM peptide in factor B-depleted serum
Description: (§1) Peptides were diluted to 0.77 mM in factor B-depleted human sera (Complement Technologies, Inc.) and incubated for 1 hour at 37° C. These peptides were then diluted with GVBS^++ to equal 2.5% serum, of which 0.25 ml was combined with 0.4 ml of GVBS^++ and 0.1 ml of sensitized sheep red blood cells (RBCs) and again incubated for 1 hour at 37° C. The procedure was stopped by the addition of 4.0 ml of GVBS^−− centrifuged for 5 minutes at 1,620×g, and the absorbance of the supernatants was read at 412 nm in a spectrophotometer. The percent lysis of each sample was standardized to that of the serum only control.
(§2) The final concentration of peptide in factor B-depleted serum was 0.77 mM. Each peptide was evaluated in triplicate and the mean values are reported. […] In the hemolytic assay, soluble peptides are standardized to water and insoluble peptides standardized to DMSO.
(§3) Polar Assortant peptides were serially diluted in undiluted factor B-depleted human sera (Complement Technologies, Inc.) and incubated for 1 hour at 37° C. Water, GVBS^++ and DMSO were included as controls. These peptides were then diluted with GVBS^++ to equal 2.5% serum, of which 0.25 ml was combined with 0.4 ml of GVBS^++ and 0.1 ml of sensitized sheep red blood cells (RBCs) and again incubated for 1 hour at 37° C. The procedure was stopped by the addition of 4.0 ml of GVBS^−−, centrifuged for 5 minutes at 1,620×g, and the absorbance of the supernatants was read at 412 nm in a spectrophotometer. The percent lysis of each sample was standardized to that of the serum only control.
(§4) The final concentration of peptide in factor B-depleted serum was 0.77 mM. […] In the hemolytic assay, soluble peptides were standardized to water and insoluble peptides standardized to DMSO.
(§5) The final concentration of peptide in factor B-depleted serum was 0.77 mM. […] In the hemolytic assay, soluble peptides are standardized to water and insoluble peptides standardized to DMSO.

[2] = test system: complement activation in factor B-depleted human sera; assay type: biochemical; settings: factor B-depleted serum
Description: as §1, §2, §3, §4, §5

Gardnerella = Gardnerella growth inhibition; assay type: cell-based
Description: The plates were then incubated at 37° C. overnight and then the plates were read on a spectrophotometer at an absorbance of OD600 nm to determine the turbidity of the solution. Decreased turbidity is indicative of inhibition of bacterial growth.
Complement activation was assayed by measuring the production of C5a using ELISA methodology. […] The associated inflammation causes the symptoms of bacterial vaginosis and increases the risk of HIV-transmission by disrupting normal barrier defenses in the vagina.

Solubility in water = assay type: physicochemical
[3] = standardized to water or DMSO, Table 6

CC[C@H](C)[C@H](N)C(=O)N[C@@H](C)C(=O)N[C@@H](CC(C)C)C(=O)N[C@H](C(=O)N[C@@H](CC(C)C)C(=O)N[C@@H](CCC(=O)O)C(=O)N1CCC[C@H]1C(=O)N[C@H](C(=O)N[C@@H](CS)C(=O)N[C@@H](CS)C(=O)N[C@@H](CCC(N)=O)C(=O)N[C@@H](CCC(=O)O)C(=O)N[C@@H](CCCNC(=N)N)C(=O)N[C@@H](C)C(=O)N[C@@H](C)C(=O)NCCOCCOCCOCCOCCOCCOCCOCCOCCOCCOCCOCCOCCC(=O)O)[C@@H](C)CC)[C@@H](C)CC [PA-dPEG12]
hemolysis [1, 3]: 11.4%

dPEG24-IALILEPICCQERAA (cysteine pairing not given here) [dPEG24-PA]
Complement inhibition in hemolytic assay [2]: varying degrees of complement inhibition

CC[C@H](C)[C@H](N)C(=O)N[C@@H](C)C(=O)N[C@@H](CC(C)C)C(=O)N(C)CC(=O)N[C@@H](CC(C)C)C(=O)N[C@@H](CCC(=O)O)C(=O)N1CCC[C@H]1C(=O)N[C@H](C(=O)N[C@@H](CS)C(=O)N[C@@H](CS)C(=O)N[C@@H](CCC(N)=O)C(=O)N[C@@H](CCC(=O)O)C(=O)N[C@@H](CCCNC(=N)N)C(=O)N[C@@H](C)C(=O)N[C@@H](C)C(=O)O)[C@@H](C)CC [PA-I4Sar] (H-IAL[Sar]LEPICCQERAA-OH)
Inhibition of Gardnerella growth (Gardnerella): inhibited the growth

CC[C@H](C)[C@H](N)C(=O)N[C@@H](C)C(=O)N[C@@H](CC(C)C)C(=O)N[C@H](C(=O)N[C@@H](CC(C)C)C(=O)N[C@@H](CCC(=O)O)C(=O)N1CCC[C@H]1C(=O)N[C@H](C(=O)N[C@@H](CS)C(=O)N[C@@H](CS)C(=O)N[C@@H](CCC(N)=O)C(=O)N[C@@H](CCC(=O)O)C(=O)N[C@@H](CCCNC(=N)N)C(=O)N[C@@H](C)C(=O)N[C@@H](C)C(=O)NCCOCCOCCOCCOCCOCCOCCC(=O)O)[C@@H](C)CC)[C@@H](C)CC [PA-dPEG06]
hemolysis [1, 3]: 44.8%

CC[C@H](C)[C@H](N)C(=O)N[C@@H](C)C(=O)N[C@@H](CC(C)C)C(=O)N[C@H](C(=O)N(C)CC(=O)N[C@@H](CCC(=O)O)C(=O)N1CCC[C@H]1C(=O)N[C@H](C(=O)N[C@@H](CS)C(=O)N[C@@H](CS)C(=O)N[C@@H](CCC(N)=O)C(=O)N[C@@H](CCC(=O)O)C(=O)N[C@@H](CCCNC(=N)N)C(=O)N[C@@H](C)C(=O)N[C@@H](C)C(=O)O)[C@@H](C)CC)[C@@H](C)CC [PA-L5Sar] (H-IALI[Sar]EPICCQERAA-OH)
Inhibition of Gardnerella growth (Gardnerella): inhibited the growth

CC[C@H](C)[C@H](N)C(=O)N[C@@H](C)C(=O)N[C@@H](CC(C)C)C(=O)N[C@H](C(=O)N[C@@H](CC(C)C)C(=O)N[C@@H](CCC(=O)O)C(=O)N1CCC[C@H]1C(=O)N[C@H](C(=O)N[C@@H](CS)C(=O)N[C@@H](CS)C(=O)N[C@@H](CCC(N)=O)C(=O)N[C@@H](CCC(=O)O)C(=O)N[C@@H](CCCNC(=N)N)C(=O)N[C@@H](C)C(=O)N[C@@H](C)C(=O)NCCOCCOCCOCCC(=O)O)[C@@H](C)CC)[C@@H](C)CC [PA-dPEG03]
hemolysis [1, 3]: 12.6%

CC[C@H](C)[C@H](N)C(=O)N[C@@H](C)C(=O)N[C@@H](CC(C)C)C(=O)N[C@H](C(=O)N[C@@H](CC(C)C)C(=O)N[C@@H](CCC(=O)O)C(=O)N1CCC[C@H]1C(=O)N[C@H](C(=O)N[C@@H](CS)C(=O)N[C@@H](CS)C(=O)N[C@@H](CCC(N)=O)C(=O)N[C@@H](CCC(=O)O)C(=O)N[C@@H](CCCNC(=N)N)C(=O)N[C@@H](C)C(=O)N[C@@H](C)C(=O)NCCOCCOCCC(=O)O)[C@@H](C)CC)[C@@H](C)CC [PA-dPEG02]
hemolysis [1, 3]: 11.6%

CC[C@H](C)[C@H](NC(=O)[C@H](CC(C)C)NC(=O)[C@H](C)N)C(=O)N[C@@H](CC(C)C)C(=O)N[C@@H](CCC(=O)O)C(=O)N1CCC[C@H]1C(=O)N[C@H](C(=O)N[C@@H](CS)C(=O)N[C@@H](CS)C(=O)N(C)CC(=O)N[C@@H](CCC(=O)O)C(=O)N[C@@H](CCCNC(=N)N)C(=O)N[C@@H](C)C(=O)N[C@@H](C)C(=O)O)[C@@H](C)CC [PA-Q11Sar] (H-ALILEPICC[Sar]ERAA-OH; N-terminus and C-terminus assumed)
hemolysis ([1]; human, mean of triplicate, standardized to water (soluble) or DMSO (insoluble)): 3.02% | Solubility in water (Solubility in water; Table 5, sarcosine substitution peptides): No

CC[C@H](C)[C@H](N)C(=O)N[C@@H](C)C(=O)N[C@@H](CC(C)C)C(=O)N[C@H](C(=O)N[C@@H](CC(C)C)C(=O)N[C@@H](CCC(=O)O)C(=O)N1CCC[C@H]1C(=O)N[C@H](C(=O)N[C@@H](CS)C(=O)N[C@@H](CS)C(=O)N[C@@H](CCC(N)=O)C(=O)N[C@@H](CCC(=O)O)C(=O)N[C@@H](CCCNC(=N)N)C(=O)N[C@@H](C)C(=O)N[C@@H](C)C(=O)NCCOCCOCCOCCOCCOCCOCCOCCOCCC(=O)O)[C@@H](C)CC)[C@@H](C)CC [PA-dPEG08]
hemolysis [1, 3]: 34.7%

CC[C@H](C)[C@H](N)C(=O)N[C@@H](C)C(=O)N[C@@H](CC(C)C)C(=O)N[C@H](C(=O)N[C@@H](CC(C)C)C(=O)N[C@@H](CCC(=O)O)C(=O)N1CCC[C@H]1C(=O)N[C@H](C(=O)N[C@@H](CS)C(=O)N[C@@H](CS)C(=O)N[C@@H](CCC(N)=O)C(=O)N[C@@H](CCC(=O)O)C(=O)N[C@@H](CCCNC(=N)N)C(=O)N[C@@H](C)C(=O)N[C@@H](C)C(=O)NCCOCCOCCOCCOCCOCCOCCOCCOCCOCCOCCOCCOCCOCCOCCOCCOCCOCCOCCOCCOCCC(=O)O)[C@@H](C)CC)[C@@H](C)CC [PA-dPEG20]
hemolysis [1, 3]: 11.4%

dPEG24-IALILEPICCQERAA-dPEG24 (cysteine pairing not given here) [dPEG24-PA-dPEG24]
Complement inhibition in hemolytic assay [2]: varying degrees of complement inhibition

CC[C@H](C)[C@H](N)C(=O)N[C@@H](C)C(=O)N[C@@H](CC(C)C)C(=O)N[C@H](C(=O)N[C@@H](CC(C)C)C(=O)N[C@@H](CCC(=O)O)C(=O)N1CCC[C@H]1C(=O)N[C@H](C(=O)N[C@@H](CS)C(=O)N[C@@H](CS)C(=O)N[C@@H](CCC(N)=O)C(=O)N[C@@H](CCC(=O)O)C(=O)N[C@@H](CCCNC(=N)N)C(=O)N[C@@H](C)C(=O)N[C@@H](C)C(=O)NCCOCCOCCOCCOCCC(=O)O)[C@@H](C)CC)[C@@H](C)CC [PA-dPEG04]
hemolysis [1, 3]: 12.4%

CC[C@H](C)[C@H](N)C(=O)N[C@@H](C)C(=O)N[C@@H](CC(C)C)C(=O)N[C@H](C(=O)N[C@@H](CC(C)C)C(=O)N[C@@H](CCC(=O)O)C(=O)N1CCC[C@H]1C(=O)N[C@H](C(=O)N[C@@H](CS)C(=O)N[C@@H](CS)C(=O)N[C@@H](CCC(N)=O)C(=O)N[C@@H](CCC(=O)O)C(=O)N[C@@H](CCCNC(=N)N)C(=O)N[C@@H](C)C(=O)N[C@@H](C)C(=O)NCCOCCOCCOCCOCCOCCOCCOCCOCCOCCOCCOCCOCCOCCOCCOCCOCCC(=O)O)[C@@H](C)CC)[C@@H](C)CC [PA-dPEG16]
hemolysis [1, 3]: 12%

CC[C@H](C)[C@H](N)C(=O)N[C@@H](C)C(=O)N(C)CC(=O)N[C@H](C(=O)N[C@@H](CC(C)C)C(=O)N[C@@H](CCC(=O)O)C(=O)N1CCC[C@H]1C(=O)N[C@H](C(=O)N[C@@H](CS)C(=O)N[C@@H](CS)C(=O)N[C@@H](CCC(N)=O)C(=O)N[C@@H](CCC(=O)O)C(=O)N[C@@H](CCCNC(=N)N)C(=O)N[C@@H](C)C(=O)N[C@@H](C)C(=O)O)[C@@H](C)CC)[C@@H](C)CC [PA-L3Sar] (H-IA[Sar]ILEPICCQERAA-OH)
Inhibition of Gardnerella growth (Gardnerella): inhibited the growth

CC[C@H](C)[C@H](N)C(=O)N[C@@H](C)C(=O)N[C@@H](CC(C)C)C(=O)N[C@H](C(=O)N[C@@H](CC(C)C)C(=O)N[C@@H](CCC(=O)O)C(=O)N1CCC[C@H]1C(=O)N[C@H](C(=O)N[C@@H](CS)C(=O)N[C@@H](CS)C(=O)N[C@@H](CCC(N)=O)C(=O)N[C@@H](CCC(=O)O)C(=O)N[C@@H](CCCNC(=N)N)C(=O)N[C@@H](C)C(=O)N[C@@H](C)C(=O)O)[C@@H](C)CC)[C@@H](C)CC [PA]
hemolysis ([1]; mean of triplicate, standardized to water (soluble) or DMSO (insoluble)): 3.15%

CC[C@H](C)[C@H](N)C(=O)N[C@@H](C)C(=O)N[C@@H](CC(C)C)C(=O)N[C@H](C(=O)N[C@@H](CC(C)C)C(=O)N[C@@H](CCC(=O)O)C(=O)N1CCC[C@H]1C(=O)N[C@H](C(=O)N(C)CC(=O)N[C@@H](CS)C(=O)N[C@@H](CCC(N)=O)C(=O)N[C@@H](CCC(=O)O)C(=O)N[C@@H](CCCNC(=N)N)C(=O)N(C)CC(=O)N[C@@H](C)C(=O)O)[C@@H](C)CC)[C@@H](C)CC [Peptide A14SarC9Sar] (H-IALILEPI[Sar]CQER[Sar]A-OH)
Solubility in water (Solubility in water; Table 7, PEGylated and Sar/Ala substitution peptides): No
